Experimental data as given in PMC9229949 (Pharmaceutics, 2022).
Read-outs that look alike come from different tables or passages of the source.

Assays:
[1] = system: P. falciparum W2 (CQ-resistant) asexual blood stages; assay: In vitro activity against asexual blood stages of P. falciparum, CQ-resistant strain W2 (HRP2 ELISA); format: cell-based; settings: Plasmodium falciparum, W2
Method: The plates were incubated for 72 h at 37 °C in controlled atmosphere. After frozen and thawing the plates, hemolyzed cultures were homogenized by vortexing the plates. The antiparasitic activity was determined using the HRP2 ELISA-based assay Malaria Ag Celisa kit (ref KM2159, Cellabs PTY LDT, Brookvale, Australia). […] IC50s are expressed as means of three to five experiments.

[2] = system: β-hematin formation from Fe(II)PPIX (heme); assay: β-hematin inhibition activity, reducing conditions (R-BHIA, heme); format: biochemical; settings: 18 h incubation; median ± S.E.M. of three experiments; free bases; read-out: β-Hematin Inhibitory Activity (BHIA) R-BHIA (Heme), IC50
Method: A hemin chloride (10 μL of 4 mM stock in 80% DMSO) aliquot was dispensed in a U bottom 96-well microplate, and then, 10 μL of 0.1 M NaOH (O-BHIA) or 4 mM reduced glutathione in PBS at pH 7.0 (R-BHIA) was added, and plates were sealed and incubated at 37 °C for 2 h. After this, 10 μL of the drug dissolved in DMSO was added and incubated for 2 h, followed by the addition of 180 μL of sodium acetate buffer (1.0 M, pH 5.2) and 10 μL of nonionic detergent IGEPAL-CA-630 solution in methanol (10 mg/mL). Plates were sealed and incubated at 37 °C for 18 h. […] The reaction was stopped by the addition of 50 μL of a sodium dodecyl sulfate solution (5.0% v/v in 0.1 M bicarbonate buffer at pH 9.0). Plates were centrifuged at 3700 rpm for 5 min, and 100 μL of supernatant was placed in a separate plate. […] Two independent experiments were performed, and each drug concentration was tested in quadruplicate concentrations.

[3] = Interaction with reduced glutathione (GSH) by monochlorobimane fluorescence assay
Method: Ten microliters per well of a solution of 2.0 mM reduced glutathione (Sigma-Aldrich, St. Louis, MO, USA, dissolved in PBS pH 7.2) was distributed in a 96-well microplate containing 170 μL/well of DMSO/PBS (1:1; v/v). Stock solutions of compounds were diluted in DMSO, and 10 μL was added in quadruplicate in the respective wells to a final concentration of 0.015 to 0.5 mM. […] After 1 h incubation at room temperature, fluorescence was recorded (λex = 360 nm, λem = 440 nm). Blank subtraction was performed prior to monochlorobimane addition, and controls included untreated wells (no drug) and no GSH. The results were expressed as a percentage of inhibition of GSH binding to monochlorobimane in comparison to control without compound. At least two independent experiments were performed.

SMILES | IC50 ([1]; 72 h incubation, HRP2 ELISA, mean ± S.E.M. of at least three experiments, AQ hydrochloride hydrate, PQ diphosphate, CQ diphosphate, read-out: P. falciparum, IC50 ± S.E.M., CQ-Resistant W2) | IC50 ([1]; Figure 5 summary, read-out: CQ-resistant P.f.) | IC50 [2] | interaction with GSH ([3]; 2 h incubation, 10 to 0.3 drug:GSH molar ratio) | binding to GSH at 24 h versus 2 h incubation ([3]; 24 h versus 2 h incubation)
CCN(CC)Cc1cc(Nc2ccnc3cc(Cl)ccc23)ccc1O [Amodiaquine (AQ), amodiaquine] | 86.2 ± 9.4 nM | 86 ± 9 nM | 100000 ± 10000 nM |  | 
[Cl][Au].c1ccc(P(c2ccccc2)c2ccccc2)cc1 [[AuClPPh3]] |  |  |  | able to interact with GSH in a drug-concentration manner | remained almost unaltered
